Experimental findings from article PMC11791314 (The Journal of Biological Chemistry, 2024) are described below.

Molecules are shown by their SMILES.

One assay has as its target T1, α1-tubulin (ChET) (Gallus gallus, UniProt P02552).
T1 construct: gene TUBA1A; native α1/β1-tubulin from chicken erythrocytes, Cp-52 C8 ring; with β1-tubulin (TUBB1, P09207)
Briefly: cryo-EM structure ([…] Å). The assay is classed as binding.

The test system of assay [1] is T2, HeLa cell line tubulin (HeLaT), αβ-tubulin heterodimer.
T2 construct: native αβ-tubulin purified from cultured HeLa cells (isotype mixture); with α1B-tubulin
In words: mass photometry of ring assembly (Kd-app). The assay is classed as binding.

Assay [2] concerns the target T3, blood cell-specific α1/β1-tubulin (ChET), β1-tubulin (Gallus gallus, UniProt P02552+P09207).
T3 construct: gene TUBA1A; native α1/β1-tubulin purified from the marginal band of chicken erythrocytes; with α1-tubulin (TUBA1A, P02552)
In words: ([…] Å, C8 ring); mass photometry Kd-app. The assay is classed as binding.

Assay [3] addresses T4, bovine brain tubulin (BBT), αβ-tubulin heterodimer.
T4 construct: native bovine brain αβ-tubulin (isotype mixture, PurSolutions)
In words: mass photometry of ring assembly (Kd-app). The class given is binding, Bos taurus.

T3 sequence (P02552 whole entry): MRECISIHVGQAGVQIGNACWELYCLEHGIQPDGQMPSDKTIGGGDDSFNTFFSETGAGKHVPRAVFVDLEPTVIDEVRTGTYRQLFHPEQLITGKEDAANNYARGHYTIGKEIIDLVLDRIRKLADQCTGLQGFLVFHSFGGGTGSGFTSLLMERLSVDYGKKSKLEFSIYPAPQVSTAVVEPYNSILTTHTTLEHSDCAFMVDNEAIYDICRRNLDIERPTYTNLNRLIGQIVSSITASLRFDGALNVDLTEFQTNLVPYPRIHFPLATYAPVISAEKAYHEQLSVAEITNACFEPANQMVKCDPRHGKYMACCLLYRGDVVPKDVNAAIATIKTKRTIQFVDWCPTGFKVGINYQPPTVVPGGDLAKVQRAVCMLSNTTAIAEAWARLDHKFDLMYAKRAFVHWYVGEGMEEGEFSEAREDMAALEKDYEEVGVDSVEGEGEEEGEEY
T3 sequence (P09207 whole entry): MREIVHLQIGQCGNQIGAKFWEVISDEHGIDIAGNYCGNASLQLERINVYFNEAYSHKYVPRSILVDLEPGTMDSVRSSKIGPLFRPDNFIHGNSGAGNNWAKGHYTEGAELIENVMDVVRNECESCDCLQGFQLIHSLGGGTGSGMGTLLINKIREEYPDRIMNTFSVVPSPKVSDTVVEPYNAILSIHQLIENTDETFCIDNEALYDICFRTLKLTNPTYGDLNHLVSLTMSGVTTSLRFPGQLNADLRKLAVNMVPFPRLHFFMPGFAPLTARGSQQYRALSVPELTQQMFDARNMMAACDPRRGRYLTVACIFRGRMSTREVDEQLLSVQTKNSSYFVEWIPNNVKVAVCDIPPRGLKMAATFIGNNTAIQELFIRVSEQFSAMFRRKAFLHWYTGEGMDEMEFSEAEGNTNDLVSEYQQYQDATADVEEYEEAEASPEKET
T1 sequence (P02552 whole entry): as the sequence (P02552 whole entry) above
T1 sequence (P09207 whole entry partner): as the sequence (P09207 whole entry) above

As to `Nc1nc2c(ncn2[C@@H]2O[C@H](COP(=O)(O)OP(=O)(O)OP(=O)(O)O)[C@@H](O)[C@H]2O)c(=O)[nH]1` [GTP], the “cryo-EM structure (3.2 Å)” value on α1-tubulin (ChET) is listed as “comprises one copy of α1-tubulin with its bound GTP”.

For the compound `COc1ccc(C[C@H]2NC(=O)/C=C/C[C@@H]([C@H](C)[C@H]3O[C@@H]3c3ccccc3)OC(=O)[C@H](CC(C)C)OC(=O)C(C)(C)CNC2=O)cc1Cl` [Cp-52, cryptophycin-52], the Kd in assay [1] is 25 ± 7 nM; in assay [2] it was 65 ± 17 nM; in assay [3] it was 172 ± 36 nM.
